{
  "source": "ChEMBL document CHEMBL4837257",
  "about": "“Discovery of the Oxadiazine FRM-024: A Potent CNS-Penetrant Gamma Secretase Modulator” (J Med Chem, 2021)",
  "key": {"[1]": {"assay": "In vivo modulation of gamma secretase in nonhuman primate assessed as reduction in Abeta40 levels in CSF at 30 mg/kg, po measured after 12 hrs by ELISA relative to control", "type": "functional, Primates, Cerebrospinal fluid", "parameters": "scale not given: the % may be the effect or the level left"}, "[2]": {"assay": "Drug metabolism in human hepatocytes assessed as mono and di-oxidative metabolites formation after 4 hrs", "type": "ADME, cell-based, Hepatocyte"}, "[3]": {"target": "Gamma-secretase", "assay": "Inhibition of gamma secretase (unknown origin) assessed as reduction in notch cleavage", "type": "functional, Homo sapiens"}},
  "data": [
    {"smiles": "COc1nc(C2=NOC(C3CC3)C(c3ccc(Cl)cc3)N2)ccc1-n1cnc(C)c1", "note": "(stereo not drawn)", "values": [
      {"measurement": "Activity", "setting": "[1]", "result": 57, "unit": "%"},
      {"measurement": "Drug metabolism", "setting": "[2]", "result": "Metabolite_Detected"},
      {"measurement": "IC50", "setting": "[3]", "result": "> 10", "unit": "µM"}
    ]}
  ]
}
